# Experimental data: patent US8309552B2, “Immunomodulating heterocyclic compounds” (Medigene AG, priority 2003, dated 2012)
# Target: T1, CD80-CD28 interaction (Homo sapiens, UniProt P33681)
# T1 sequence (P33681 35-242 limits assumed): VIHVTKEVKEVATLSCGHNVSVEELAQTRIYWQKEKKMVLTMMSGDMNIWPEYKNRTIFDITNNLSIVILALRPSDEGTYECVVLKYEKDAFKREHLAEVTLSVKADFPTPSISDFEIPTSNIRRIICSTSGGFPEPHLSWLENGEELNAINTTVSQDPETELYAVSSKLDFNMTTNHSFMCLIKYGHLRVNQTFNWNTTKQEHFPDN
# Assay: Homogenous Time Resolved Fluorescence (HTRF) assay, cell free
# Assay type: binding
# Settings: cell free HTRF assay; concentration series 100 μM-1.7 nM; 4 hours at room temperature; read-out: Activity (EC50 in the HTRF assay)
# Description: Homogenous Time Resolved Fluorescence Assay
# The examples described above were tested in a cell free Homogenous Time Resolved Fluorescence (HTRF) assay to determine their activity as inhibitors of the CD80-CD28 interaction.
# In the assay, europium and allophycocyanin (APC) are associated with CD28 and CD80 indirectly (through antibody linkers) to form a complex, which brings the europium and APC into close proximity to generate a signal. The complex comprises the following six proteins: fluorescent label 1, linker antibody 1, CD28 fusion protein, CD80 fusion protein, linker antibody 2, and fluorescent label 2. The table below describes these reagents in greater detail.
# On formation of the complex, europium and APC are brought into proximity and a signal is generated.
# Non-specific interaction was measured by substituting a mouse Fab fragment (C215) for the CD80 mouse Fab fragment fusion protein (1.9 μg/ml). The assay was carried out in black 384 well plates in a final volume of 30 μl. Assay buffer: 50 mM Tris-HCl, 150 mM NaCl pH7.8, containing 0.1% BSA (w/v) added just prior to use.
# Compounds were added to the above reagents in a concentration series ranging between 100 μM-1.7 nM. The reaction was incubated for 4 hours at room temperature. Dual measurements were made using a Wallac Victor 1420 Multilabel Counter. First measurement: excitation 340 nm, emission 665 nm, delay 50 μs, window time 200 μs. second measurement: excitation 340 nm, emission 615 nm, delay 50 μs, window time 200 μs. Counts were automatically corrected for fluorescence crossover, quenching and background. The EC50 activities of compounds tested are recorded as: EC50:*=>10 μM,**=1-10 μM,***=<1 μM.
row,Compound,EC50 [nM]
1,CC(C)C(C)NC(=O)Nc1ccc(-n2[nH]c3c(nnc4ccccc43)c2=O)cc1 (centres unmarked) [Example 263],1000 to 10000
2,CCOC(=O)C1CCCC1NC(=O)c1ccc(-n2[nH]c3c(nnc4ccccc43)c2=O)cc1 (centres unmarked) [Example 275],1000 to 10000
3,CCC(CC)CNC(=O)Nc1ccc(-n2[nH]c3c(nnc4ccccc43)c2=O)cc1 [Example 221],> 10000
4,O=C(NCC1CCNCC1)Nc1ccc(-n2[nH]c3c(nnc4ccccc43)c2=O)cc1 [Example 290],< 1000
5,CSCCCNC(=O)c1ccc(-n2[nH]c3c(nnc4ccccc43)c2=O)cc1 [Example 274],< 1000
6,CCNC(=O)Nc1ccc(-n2[nH]c3c(nnc4ccccc43)c2=O)cc1 [Example 282],< 1000
7,CC(C)CNC(=O)c1ccc(-n2[nH]c3c(nnc4ccccc43)c2=O)cc1 [Example 260],1000 to 10000
8,CN1C(C)(C)CC(NC(=O)c2ccc(-n3[nH]c4c(nnc5c(F)cccc54)c3=O)cc2)CC1(C)C [Example 234],< 1000
9,CC(C)(C)OC(=O)N1CCN(CCNC(=O)Nc2ccc(-n3[nH]c4c(nnc5ccccc54)c3=O)cc2)CC1 [Example 294],1000 to 10000

# Results, then the compound that gave them:
row,EC50 [nM],Compound
1,1000 to 10000,O=C(NCCc1ccccc1Br)c1ccc(-n2[nH]c3c(nnc4c(F)cccc43)c2=O)cc1 [Example 368]
2,< 1000,CN1C(C)(C)CC(NC(=O)c2ccc(-n3[nH]c4c(nnc5cccc(F)c54)c3=O)cc2)CC1(C)C [Example 390]
3,< 1000,CCN(CC)CCCNC(=O)c1ccc(-n2[nH]c3c(nnc4cccc(F)c43)c2=O)cc1 [Example 392]
4,< 1000,NCCCCNC(=O)c1ccc(-n2[nH]c3c(nnc4c(F)cccc43)c2=O)cc1 [Example 351]
5,1000 to 10000,CC1CCCCC1NC(=O)c1ccc(-n2[nH]c3c(nnc4ccccc43)c2=O)cc1 (centres unmarked) [Example 316]
6,< 1000,Cc1ccc2nnc3c(=O)n(-c4ccc(C(=O)NC5CC(C)(C)N(C)C(C)(C)C5)cc4)[nH]c3c2c1 [Example 408]
7,< 1000,CCCNCCNC(=O)c1ccc(-n2[nH]c3c(nnc4c(F)cccc43)c2=O)cc1 [Example 341]
8,< 1000,O=C(NCCC(F)(F)F)c1ccc(-n2[nH]c3c(nnc4ccccc43)c2=O)cc1 [Example 312]
9,< 1000,O=C(NCCCn1ccnc1)Nc1ccc(-n2[nH]c3c(nnc4ccccc43)c2=O)cc1 [Example 298]
10,1000 to 10000,O=C(NCCc1ccc(Cl)c(Cl)c1)c1ccc(-n2[nH]c3c(nnc4c(F)cccc43)c2=O)cc1 [Example 372]
11,> 10000,O=C(Nc1ccc(-n2[nH]c3c(nnc4ccccc43)c2=O)cc1)NC1CCCCCC1 [Example 299]
12,< 1000,O=C(NCCCCN1CCOCC1)c1ccc(-n2[nH]c3c(nnc4c(F)cccc43)c2=O)cc1 [Example 434]
13,< 1000,CN(C)CCNC(=O)Nc1ccc(-n2[nH]c3c(nnc4c(F)cccc43)c2=O)cc1 [Example 324]
14,< 1000,CN(C)CC(C)(C)CNC(=O)c1ccc(-n2[nH]c3c(nnc4cccc(F)c43)c2=O)cc1 [Example 404]
15,< 1000,CS(=O)(=O)c1ccc(CN2CCC(NC(=O)c3ccc(-n4[nH]c5c(nnc6c(F)cccc65)c4=O)cc3)CC2)cc1 [Example 380]
16,< 1000,CN(CCCCNC(=O)c1ccc(-n2[nH]c3c(nnc4c(F)cccc43)c2=O)cc1)C1CCCCC1 [Example 436]
17,< 1000,CNCCCNC(=O)c1ccc(-n2[nH]c3c(nnc4c(F)cccc43)c2=O)cc1 [Example 355]
18,< 1000,CCCCOCCCNC(=O)c1ccc(-n2[nH]c3c(nnc4c(F)cccc43)c2=O)cc1 [Example 354]
19,< 1000,CCN(CC)CCNC(=O)c1ccc(-n2[nH]c3c(nnc4c(F)cccc43)c2=O)cc1 [Example 342]
20,< 1000,O=C(NCCCCO)c1ccc(-n2[nH]c3c(nnc4ccc(F)cc43)c2=O)cc1 [Example 386]

# Same assay, conditions: cell-free HTRF, compound concentration series 100 μM-1.7 nM, 4 hours at room temperature; read-out: Activity (EC50 in the HTRF assay)
row,EC50 [nM],Compound
1,< 1000,O=C(NCCCCCO)c1ccc(-n2[nH]c3c(nnc4ccccc43)c2=O)cc1 [Example 112]
2,< 1000,O=C(NC1CCN(Cc2ccccc2)CC1)c1ccc(-n2[nH]c3c(nnc4ccccc43)c2=O)cc1 [Example 86]
3,< 1000,CC[C@@H](C)NC(=O)c1ccc(-n2[nH]c3c(nnc4ccccc43)c2=O)cc1 [Example 70]
4,> 10000,CCCCCCC(C)NC(=O)c1ccc(-n2[nH]c3c(nnc4ccccc43)c2=O)cc1 (centres unmarked) [Example 27]
5,1000 to 10000,O=C(NC1CCCCCC1)c1ccc(-n2[nH]c3c(nnc4ccccc43)c2=O)cc1 [Example 24]
6,1000 to 10000,C=C(C)C(=O)OCCNC(=O)c1ccc(-n2[nH]c3c(nnc4ccccc43)c2=O)cc1 [Example 28]
7,< 1000,O=C(NCCCN1CCOCC1)Nc1ccc(-n2[nH]c3c(nnc4ccccc43)c2=O)cc1 [Example 179]
8,1000 to 10000,CCOC(=O)N1CCC(NC(=O)c2ccc(-n3[nH]c4c(nnc5ccccc54)c3=O)cc2)CC1 [Example 104]
9,< 1000,O=C(NCCN1CCN(Cc2ccccc2)CC1)c1ccc(-n2[nH]c3c(nnc4ccccc43)c2=O)cc1 [Example 37]
10,> 10000,CC(C)(C)C1CCC(NC(=O)c2ccc(-n3[nH]c4c(nnc5ccccc54)c3=O)cc2)CC1 (centres unmarked) [Example 38]
11,> 10000,O=C(Nc1ccc(-n2[nH]c3c(nnc4ccccc43)c2=O)cc1)NC1CCCC1OCc1ccccc1 (centres unmarked) [Example 211]
12,1000 to 10000,O=C(NCc1ccc(OC(F)(F)F)cc1)c1ccc(-n2[nH]c3c(nnc4ccccc43)c2=O)cc1 [Example 64]
13,1000 to 10000,CC(NC(=O)c1ccc(-n2[nH]c3c(nnc4ccccc43)c2=O)cc1)C1CCCCC1 (centres unmarked) [Example 120]
14,1000 to 10000,CCOC(=O)C(C)NC(=O)c1ccc(-n2[nH]c3c(nnc4ccccc43)c2=O)cc1 (centres unmarked) [Example 66]
15,1000 to 10000,O=C(NCCOc1ccccc1)c1ccc(-n2[nH]c3c(nnc4ccccc43)c2=O)cc1 [Example 63]
16,> 10000,C=C(C)C(=O)OCCNC(=O)Nc1ccc(-n2[nH]c3c(nnc4ccccc43)c2=O)cc1 [Example 209]
17,1000 to 10000,CCOC(=O)CC(C)NC(=O)Nc1ccc(-n2[nH]c3c(nnc4ccccc43)c2=O)cc1 (centres unmarked) [Example 175]
18,1000 to 10000,CC1CCC(NC(=O)c2ccc(-n3[nH]c4c(nnc5ccccc54)c3=O)cc2)CC1 (centres unmarked) [Example 62]
19,< 1000,COCC(C)NC(=O)Nc1ccc(-n2[nH]c3c(nnc4ccccc43)c2=O)cc1 (centres unmarked) [Example 210]
20,1000 to 10000,O=C(NCCCCCNC(=O)OCc1ccccc1)Nc1ccc(-n2[nH]c3c(nnc4ccccc43)c2=O)cc1 [Example 219]
21,1000 to 10000,O=C(NCc1ccc([N+](=O)[O-])cc1)c1ccc(-n2[nH]c3c(nnc4ccccc43)c2=O)cc1 [Example 21]
22,> 10000,CC1C(NC(=O)Nc2ccc(-n3[nH]c4c(nnc5ccccc54)c3=O)cc2)CC2CC1C2(C)C (centres unmarked) [Example 201]
23,1000 to 10000,CCC(CC)NC(=O)c1ccc(-n2[nH]c3c(nnc4ccccc43)c2=O)cc1 [Example 72]
24,1000 to 10000,O=C(NC1CC1)c1ccc(-n2[nH]c3c(nnc4ccccc43)c2=O)cc1 [Example 78]
25,1000 to 10000,CC(C)CNC(=O)Nc1ccc(-n2[nH]c3c(nnc4ccccc43)c2=O)cc1 [Example 138]
26,> 10000,CCCCCCCC(C)NC(=O)c1ccc(-n2[nH]c3c(nnc4ccccc43)c2=O)cc1 (centres unmarked) [Example 92]
27,> 10000,CCCCCC(C)NC(=O)Nc1ccc(-n2[nH]c3c(nnc4ccccc43)c2=O)cc1 (centres unmarked) [Example 181]
28,< 1000,CCN(CC)CCCC(C)NC(=O)c1ccc(-n2[nH]c3c(nnc4ccccc43)c2=O)cc1 (centres unmarked) [Example 81]

# Same assay, conditions: cell-free HTRF, concentration series 100 μM-1.7 nM, 4 hours at room temperature; read-out: Activity (EC50 in the HTRF assay)
row,EC50 [nM],Compound
1,1000 to 10000,O=C(NCC1CCCCC1O)c1ccc(-n2[nH]c3c(nnc4c(F)cccc43)c2=O)cc1 (centres unmarked) [Example 504]
2,1000 to 10000,C=CCN(CC=C)C(=O)c1ccc(-n2[nH]c3c(nnc4c(F)cccc43)c2=O)cc1 [Example 474]
3,> 10000,CC(C)(CO)NC(=O)c1ccc(-n2[nH]c3c(nnc4c(F)cccc43)c2=O)cc1 [Example 516]
4,1000 to 10000,O=C(NCC1CCCCCC1O)c1ccc(-n2[nH]c3c(nnc4c(F)cccc43)c2=O)cc1 (centres unmarked) [Example 503]
5,< 1000,CC(C)(C)NCCCCNC(=O)c1ccc(-n2[nH]c3c(nnc4c(F)cccc43)c2=O)cc1 [Example 479]
6,< 1000,O=C(NCC1CCNCC1)c1ccc(-n2[nH]c3c(nnc4c(F)cccc43)c2=O)cc1 [Example 444]
7,< 1000,CC1CCN(CCCCNC(=O)c2ccc(-n3[nH]c4c(nnc5c(F)cccc54)c3=O)cc2)CC1 [Example 464]
8,< 1000,O=C(NC1CCN(CC2CCCCC2)CC1)c1ccc(-n2[nH]c3c(nnc4c(F)cccc43)c2=O)cc1 [Example 456]
